In patent US20230085307A1, “PYRIDAZINONE COMPOUND AND HERBICIDE” (NISSAN CHEMICAL CORPORATION, priority 2019, published 2023):

What was measured:
[1] = tested on: green foxtail; assay: Test Example 5: herbicidal effect by foliage application, plastic box (Table 20, symbol G); assay type: in vivo, green foxtail (Setaria viridis); settings: foliage application, 320 g/ha, three weeks after application
How it was run: (§1)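 Plants sown in sterilized diluvial soil and grown 14 days in a greenhouse at 25° C to 30° C, then sprayed on the foliage with the compound's emulsion diluted in water to a predetermined herbicide amount. Injury to weeds and crops scored three weeks after application on a visual rating scale.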

[2] = tested on: green foxtail; assay: Test Example 4: herbicidal effect by soil treatment (Table 19, symbol G); assay type: in vivo, green foxtail (Setaria viridis); settings: amount of applied herbicide 320 g/ha
How it was run: (§2)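 Three weeks of greenhouse growth at 25° C. to 30° C. followed a uniform surface spray of water-diluted emulsion at a predetermined herbicide amount. Seeds had been sown beforehand under about 1.5 cm of sterilized diluvial soil. Grading followed criteria set out in an earlier test.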

[3] = tested on: barnyard grass; assay: Test Example 4: herbicidal effect by soil treatment (Table 19, symbol H); assay type: in vivo, barnyard grass (Echinochloa crus-galli); settings: amount of applied herbicide 320 g/ha
How it was run: as §2

[4] = tested on: oval-leafed pondweed; assay: Test Example 1: herbicidal activity, application before weed generation under submerged conditions (Table 16, symbol C); assay type: in vivo, oval-leafed pondweed (Monochoria vaginalis); settings: amount of applied herbicide 320 g/ha
How it was run: (§3)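 Submerged Wagner pots (alluvial soil, 4 cm water) sown with weed seeds and planted with 2.5-leaf rice seedlings; emulsifiable concentrate diluted in water applied to water surface on sowing day. Held in greenhouse at 25-30 °C; injury scored 0-5 by herbicidal rate after three weeks.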

[5] = tested on: barnyard grass; assay: Test Example 5: herbicidal effect by foliage application, plastic box (Table 20, symbol H); assay type: in vivo, barnyard grass (Echinochloa crus-galli); settings: foliage application, 320 g/ha, three weeks after application
How it was run: as §1

[6] = tested on: windgrass; assay: Test Example 5: herbicidal effect by foliage application, plastic box (Table 20, symbol L); assay type: in vivo, windgrass (Apera spica-venti); settings: foliage application, 320 g/ha, three weeks after application
How it was run: as §1

[7] = tested on: southern crabgrass; assay: Test Example 5: herbicidal effect by foliage application, plastic box (Table 20, symbol F); assay type: in vivo, southern crabgrass (Digitaria ciliaris); settings: foliage application, 320 g/ha, three weeks after application
How it was run: as §1

[8] = tested on: chickweed; assay: Test Example 4: herbicidal effect by soil treatment (Table 19, symbol P); assay type: in vivo, common chickweed (Stellaria media); settings: amount of applied herbicide 320 g/ha
How it was run: as §2

[9] = tested on: redroot pigweed; assay: Test Example 4: herbicidal effect by soil treatment (Table 19, symbol N); assay type: in vivo, redroot pigweed (Amaranthus retroflexus); settings: amount of applied herbicide 320 g/ha
How it was run: as §2

[10] = tested on: Japanese bulrush; assay: Test Example 1: herbicidal activity, application before weed generation under submerged conditions (Table 16, symbol B); assay type: in vivo, Japanese bulrush (Schoenoplectus juncoides); settings: amount of applied herbicide 320 g/ha
How it was run: as §3

[11] = tested on: southern crabgrass; assay: Test Example 4: herbicidal effect by soil treatment (Table 19, symbol F); assay type: in vivo, southern crabgrass (Digitaria ciliaris); settings: amount of applied herbicide 320 g/ha
How it was run: as §2

[12] = tested on: velvetleaf; assay: Test Example 5: herbicidal effect by foliage application, plastic box (Table 20, symbol M); assay type: in vivo, velvetleaf (Abutilon theophrasti); settings: foliage application, 320 g/ha, three weeks after application
How it was run: as §1

[13] = tested on: rice flat sedge; assay: Test Example 3: herbicidal effect by foliage application, Wagner pot (Table 18, symbol E); assay type: in vivo, rice flat sedge (Cyperus iria); settings: amount of applied herbicide 320 g/ha
How it was run: (§4)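 Plants were sown in alluvial soil held under 0.1–0.5 cm standing water and grown 14 days in a greenhouse at 25–30 °C. An emulsifiable formulation, water-diluted to the set dose, was then sprayed onto the foliage, and effects were scored three weeks later using previously defined criteria.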

[14] = tested on: chickweed; assay: Test Example 5: herbicidal effect by foliage application, plastic box (Table 20, symbol P); assay type: in vivo, common chickweed (Stellaria media); settings: foliage application, 320 g/ha, three weeks after application
How it was run: as §1

[15] = tested on: late watergrass; assay: Test Example 1: herbicidal activity, application before weed generation under submerged conditions (Table 16, symbol A); assay type: in vivo, late watergrass (Echinochloa oryzicola); settings: amount of applied herbicide 320 g/ha
How it was run: as §3

[16] = tested on: Italian ryegrass; assay: Test Example 5: herbicidal effect by foliage application, plastic box (Table 20, symbol K); assay type: in vivo, Italian ryegrass (Lolium multiflorum); settings: foliage application, 320 g/ha, three weeks after application
How it was run: as §1

[17] = tested on: persian speedwell; assay: Test Example 5: herbicidal effect by foliage application, plastic box (Table 20, symbol R); assay type: in vivo, Persian speedwell (Veronica persica); settings: foliage application, 320 g/ha, three weeks after application
How it was run: as §1

[18] = tested on: wild oat; assay: Test Example 5: herbicidal effect by foliage application, plastic box (Table 20, symbol I); assay type: in vivo, wild oat (Avena fatua); settings: foliage application, 320 g/ha, three weeks after application
How it was run: as §1

[19] = tested on: blackgrass; assay: Test Example 5: herbicidal effect by foliage application, plastic box (Table 20, symbol J); assay type: in vivo, blackgrass (Alopecurus myosuroides); settings: foliage application, 320 g/ha, three weeks after application
How it was run: as §1

[20] = tested on: Chinese sprangletop; assay: Test Example 3: herbicidal effect by foliage application, Wagner pot (Table 18, symbol D); assay type: in vivo, chinese sprangletop (Leptochloa chinensis); settings: amount of applied herbicide 320 g/ha
How it was run: as §4

[21] = tested on: persian speedwell; assay: Test Example 4: herbicidal effect by soil treatment (Table 19, symbol R); assay type: in vivo, Persian speedwell (Veronica persica); settings: amount of applied herbicide 320 g/ha
How it was run: as §2

[22] = tested on: lambsquarters; assay: Test Example 4: herbicidal effect by soil treatment (Table 19, symbol O); assay type: in vivo, lambsquarters (Chenopodium album); settings: amount of applied herbicide 320 g/ha
How it was run: as §2

[23] = tested on: Italian ryegrass; assay: Test Example 4: herbicidal effect by soil treatment (Table 19, symbol K); assay type: in vivo, Italian ryegrass (Lolium multiflorum); settings: amount of applied herbicide 320 g/ha
How it was run: as §2

[24] = tested on: lambsquarters; assay: Test Example 5: herbicidal effect by foliage application, plastic box (Table 20, symbol O); assay type: in vivo, lambsquarters (Chenopodium album); settings: foliage application, 320 g/ha, three weeks after application
How it was run: as §1

[25] = tested on: windgrass; assay: Test Example 4: herbicidal effect by soil treatment (Table 19, symbol L); assay type: in vivo, windgrass (Apera spica-venti); settings: amount of applied herbicide 320 g/ha
How it was run: as §2

[26] = tested on: barnyard grass; assay: Test Example 3: herbicidal effect by foliage application, Wagner pot (Table 18, symbol H); assay type: in vivo, barnyard grass (Echinochloa crus-galli); settings: amount of applied herbicide 320 g/ha
How it was run: as §4

[27] = tested on: redroot pigweed; assay: Test Example 5: herbicidal effect by foliage application, plastic box (Table 20, symbol N); assay type: in vivo, redroot pigweed (Amaranthus retroflexus); settings: foliage application, 320 g/ha, three weeks after application
How it was run: as §1

[28] = tested on: false cleavers; assay: Test Example 5: herbicidal effect by foliage application, plastic box (Table 20, symbol Q); assay type: in vivo, false cleavers (Galium spurium); settings: foliage application, 320 g/ha, three weeks after application
How it was run: as §1

[29] = tested on: velvetleaf; assay: Test Example 4: herbicidal effect by soil treatment (Table 19, symbol M); assay type: in vivo, velvetleaf (Abutilon theophrasti); settings: amount of applied herbicide 320 g/ha
How it was run: as §2

[30] = tested on: blackgrass; assay: Test Example 4: herbicidal effect by soil treatment (Table 19, symbol J); assay type: in vivo, blackgrass (Alopecurus myosuroides); settings: amount of applied herbicide 320 g/ha
How it was run: as §2

[31] = tested on: wild oat; assay: Test Example 4: herbicidal effect by soil treatment (Table 19, symbol I); assay type: in vivo, wild oat (Avena fatua); settings: amount of applied herbicide 320 g/ha
How it was run: as §2

Cc1nn(Cc2ccccc2)c(=O)c(-c2c(-c3ccc(F)cc3)sc3ccc(F)cc23)c1O [2-432] was tested, and the “G: green foxtail, herbicidal effect grade” value [1] was 0 (Herbicidal rate of 5% or less (almost no effect)), the “herbicidal effect, G: green foxtail” value [2] was 1 (Herbicidal rate of 5% or more and less than 20%) and the “herbicidal effect, H: barnyard grass” value [3] was 0 (Herbicidal rate of 5% or less (almost no effect)). For the same molecule, the “Herbicidal effect, C: oval-leafed pondweed” value [4] was 0 (Herbicidal rate of 5% or less (almost no effect)), the “H: barnyard grass, herbicidal effect grade” value [5] was 1 (Herbicidal rate of 5% or more and less than 20%) and the “L: windgrass, herbicidal effect grade” value [6] was 0 (Herbicidal rate of 5% or less (almost no effect)). The “F: southern crabgrass, herbicidal effect grade” value [7] was 3 (Herbicidal rate of 40% or more and less than 70%), the “herbicidal effect, P: chickweed” value [8] was 0 (Herbicidal rate of 5% or less (almost no effect)) and the “herbicidal effect, N: redroot pigweed” value [9] was 3 (Herbicidal rate of 40% or more and less than 70%). The “Herbicidal effect, B: Japanese bulrush” value [10] was 0 (Herbicidal rate of 5% or less (almost no effect)), the “herbicidal effect, F: southern crabgrass” value [11] was 0 (Herbicidal rate of 5% or less (almost no effect)) and the “M: velvetleaf, herbicidal effect grade” value [12] was 1 (Herbicidal rate of 5% or more and less than 20%). The “herbicidal effect on E: rice flat sedge” value [13] was 2 (Herbicidal rate of 20% or more and less than 40%), the “P: chickweed, herbicidal effect grade” value [14] was 5 (Herbicidal rate of 90% or more (almost completely withered)) and the “Herbicidal effect, A: late watergrass” value [15] was 2 (Herbicidal rate of 20% or more and less than 40%). For the same molecule, the “K: Italian ryegrass, herbicidal effect grade” value [16] was 0 (Herbicidal rate of 5% or less (almost no effect)), the “R: persian speedwell, herbicidal effect grade” value [17] was 5 (Herbicidal rate of 90% or more (almost completely withered)) and the “I: wild oat, herbicidal effect grade” value [18] was 0 (Herbicidal rate of 5% or less (almost no effect)). The “J: blackgrass, herbicidal effect grade” value [19] was 0 (Herbicidal rate of 5% or less (almost no effect)), the “herbicidal effect on D: Chinese sprangletop” value [20] was 0 (Herbicidal rate of 5% or less (almost no effect)) and the “herbicidal effect, R: persian speedwell” value [21] was 0 (Herbicidal rate of 5% or less (almost no effect)). The “herbicidal effect, O: lambsquarters” value [22] was 2 (Herbicidal rate of 20% or more and less than 40%), the “herbicidal effect, K: Italian ryegrass” value [23] was 0 (Herbicidal rate of 5% or less (almost no effect)) and the “O: lambsquarters, herbicidal effect grade” value [24] was 2 (Herbicidal rate of 20% or more and less than 40%). For the same molecule, the “herbicidal effect, L: windgrass” value [25] was 0 (Herbicidal rate of 5% or less (almost no effect)), the “herbicidal effect on H: barnyard grass” value [26] was 3 (Herbicidal rate of 40% or more and less than 70%) and the “N: redroot pigweed, herbicidal effect grade” value [27] was 5 (Herbicidal rate of 90% or more (almost completely withered)). For the same molecule, the “Q: false cleavers, herbicidal effect grade” value [28] was 3 (Herbicidal rate of 40% or more and less than 70%), the “herbicidal effect, M: velvetleaf” value [29] was 0 (Herbicidal rate of 5% or less (almost no effect)) and the “herbicidal effect, J: blackgrass” value [30] was 0 (Herbicidal rate of 5% or less (almost no effect)). The “herbicidal effect, I: wild oat” value [31] was 0 (Herbicidal rate of 5% or less (almost no effect)).
